Measurements from the supplement of paper PMC11208160.

Assay: recombinant UMI read abundance after kanamycin selection (control-corrected) (log10(CPM+1)); higher = more efficient recombination; extreme values may be limits of the assay; sequences stand for … in AGTGCAGAGAAAATCGGCCAGTTTTCTCTGCCTGCAGTCCGCATGCCGTGGGACCCCTTGGGTTCTAACCTGTTGCCTAGATTTATGCAGCGGACTGCCTTTCTCCCAAAGTGATAAACCGG…AGGTTGGTTTCACT; site = the 11-nt donor
Summary of the method: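 Counts of recombinant UMIs were reported as log10(CPM+1). Before that, they were converted to CPM, averaged over replicates and scaled using control-derived factors. They came from PCR across the donor–target junction after Escherichia coli carrying the pair library and target plasmid was plated on IPTG (0.07 mM) plus kanamycin, or unselected, in two replicates each.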
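Also: IS621 bridge recombinase in Escherichia coli cells against a fixed T5 target plasmid.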

Sequence	recombinant UMI read abundance (log10)
AGCCTTGCATGGACCGGTTTTCCCGGTAATCCGTATTTGAC (site AGCCTTCCTGT)	0
ACACGACCATGGACCGGTTTTCCCGGTAATCCGTATTTGTC (site ACACGAACTGA)	0.0114
CAAGCGCCATGGACCGGTTTTCCCGGTAATCCGTATTTGTG (site CAAGAGCCTCA)	0.0105
CGTCTTCCATGGACCGGTTTTCCCGGTAATCCGTATTTGTC (site CGTCTTCCTGA)	1.19
CAGTCGCCATGGACCGGTTTTCCCGGTAATCCGTATTTGGG (site CAGTCGACTCC)	0.0111
AACCAAGCATGGACCGGTTTTCCCGGTAATCCGTATTTGAG (site ACCCAAGCTCT)	0.33
AATTTGTCATGGACCGGTTTTCCCGGTAATCCGTATTTGAC (site AATCTGTCTGT)	0
GCCGCGCCATGGACCGGTTTTCCCGGTAATCCGTATTTGTA (site GCCGCGCCTTA)	0.234
CCCCTCACATGGACCGGTTTTCCCGGTAATCCGTATTTGTA (site CCCCTCACTTA)	1.15
CGGAATCCATGGACCGGTTTTCCCGGTAATCCGTATTTGTT (site CGGATTCCTTA)	0
CCCCACACATGGACCGGTTTTCCCGGTAATCCGTATTTGAA (site CCCCACACTTT)	0.557
TAGAATACATGGACCGGTTTTCCCGGTAATCCGTATTTGCA (site TAGTATACTTG)	1.34
GCTTGCTCATGGACCGGTTTTCCCGGTAATCCGTATTTGAT (site GCTTGCGCTAT)	0.00706
GCTACTGCATGGACCGGTTTTCCCGGTAATCCGTATTTGCC (site GCTACCGCTGG)	0
CTTCTCTCATGGACCGGTTTTCCCGGTAATCCGTATTTGTT (site CTTCTCTCTGA)	0
GCTACAACATGGACCGGTTTTCCCGGTAATCCGTATTTGAG (site GCTACAACTCT)	0.921
CAGTTTACATGGACCGGTTTTCCCGGTAATCCGTATTTGCT (site CCGTTTACTAG)	0.978
CACTCCTCATGGACCGGTTTTCCCGGTAATCCGTATTTGCG (site CACTCCTCTAG)	1.11
TCCACCGCATGGACCGGTTTTCCCGGTAATCCGTATTTGCG (site TCCACCGCTCA)	0.0193

Sequence	recombinant UMI read abundance (log10)
ATACAGCCATGGACCGGTTTTCCCGGTAATCCGTATTTGGT (site ATACAGCCTAC)	0.00946
CGATCATCATGGACCGGTTTTCCCGGTAATCCGTATTTGCT (site AGATCTTCTAG)	0
AACTTGGCATGGACCGGTTTTCCCGGTAATCCGTATTTGGA (site AACTTGGCTTC)	0.368
CTCGCGGCATGGACCGGTTTTCCCGGTAATCCGTATTTGCC (site CTCGCGGCTGG)	0
CGATCATCATGGACCGGTTTTCCCGGTAATCCGTATTTGCT (site CGATAATCTAC)	0
TTGAATACATGGACCGGTTTTCCCGGTAATCCGTATTTGCA (site TCGAATACTTG)	0
GCCGGTCCATGGACCGGTTTTCCCGGTAATCCGTATTTGCA (site CCCGGTCCTTG)	0
CTGAAAACATGGACCGGTTTTCCCGGTAATCCGTATTTGCA (site CTGTAAACTTG)	0
GCATCGGCATGGACCGGTTTTCCCGGTAATCCGTATTTGAC (site GCATCGGCTGT)	2.09
GGAGATTCATGGACCGGTTTTCCCGGTAATCCGTATTTGTT (site GCAGATTCTAA)	0
GGTCCAACATGGACCGGTTTTCCCGGTAATCCGTATTTGTA (site GGTCCAGCTTA)	0.015
CGATTCCCATGGACCGGTTTTCCCGGTAATCCGTATTTGCT (site CTATTCCCTAG)	0
CAGTTTACATGGACCGGTTTTCCCGGTAATCCGTATTTGCT (site CTGTTTACTAG)	0.662
ATGCTACCATGGACCGGTTTTCCCGGTAATCCGTATTTGCT (site CTGCTACCTAG)	0
GTATGCTCATGGACCGGTTTTCCCGGTAATCCGTATTTGTA (site GTATGCGCTTA)	0.0181
ACAGTACCATGGACCGGTTTTCCCGGTAATCCGTATTTGCC (site ACAGTATCTTG)	0.966
GACCCGCCATGGACCGGTTTTCCCGGTAATCCGTATTTGTG (site GACCCGCCTCA)	0.0171
TCCACCTCATGGACCGGTTTTCCCGGTAATCCGTATTTGCG (site TCCACCTCTCG)	0.0255
TCATCCTCATGGACCGGTTTTCCCGGTAATCCGTATTTGCA (site TCATTCTCTTG)	0

Sequence	recombinant UMI read abundance (log10)
TCCAAATCATGGACCGGTTTTCCCGGTAATCCGTATTTGCC (site TCCAATTCTGG)	0
ACACAGCCATGGACCGGTTTTCCCGGTAATCCGTATTTGAC (site ACACAGCCTGT)	1.05
GACAAAACATGGACCGGTTTTCCCGGTAATCCGTATTTGGT (site GACAAAACTAC)	0.855
CGGAATCCATGGACCGGTTTTCCCGGTAATCCGTATTTGTT (site CGGACTCCTAC)	0.00516
ATGAAGACATGGACCGGTTTTCCCGGTAATCCGTATTTGCA (site ACGAAGACTTG)	2.34
TCCACCGCATGGACCGGTTTTCCCGGTAATCCGTATTTGCG (site TCCACCTCTCG)	0.00739
TTCTAGGCATGGACCGGTTTTCCCGGTAATCCGTATTTGGT (site TACTAGGCTAC)	0.00535
TGGAGTTCATGGACCGGTTTTCCCGGTAATCCGTATTTGTA (site TGGAGTTCTTA)	1.31
GAATGGCCATGGACCGGTTTTCCCGGTAATCCGTATTTGCA (site GAATGGCCTCG)	0.0219
GTTAGAACATGGACCGGTTTTCCCGGTAATCCGTATTTGGC (site GTTATAACTGC)	1.54
TTTGCTGCATGGACCGGTTTTCCCGGTAATCCGTATTTGTG (site TTAGCTGCTCA)	0.0128
CGTAATCCATGGACCGGTTTTCCCGGTAATCCGTATTTGTT (site CGGAATCCTAA)	0.00347
AATGTAACATGGACCGGTTTTCCCGGTAATCCGTATTTGTT (site AATGTAACTAC)	0.00716
CGTTCACCATGGACCGGTTTTCCCGGTAATCCGTATTTGCT (site CGATCATCTAG)	0
AGTAGTGCATGGACCGGTTTTCCCGGTAATCCGTATTTGGT (site AGTAGTGCTAC)	1.3
GCATGCCCATGGACCGGTTTTCCCGGTAATCCGTATTTGAT (site GCCTGCCCTAT)	0.226
ATAGTATCATGGACCGGTTTTCCCGGTAATCCGTATTTGAC (site ATAGTATCTGT)	3.75
GCTTGCCCATGGACCGGTTTTCCCGGTAATCCGTATTTGCT (site GCTTGCCCTAG)	0.858
ATGTAGGCATGGACCGGTTTTCCCGGTAATCCGTATTTGGA (site ATGTAGGCTGC)	1.58
